Assay results taken from patent publication US8192962B2, “Processes for detecting toxic substances” (Daikin Industries, Ltd., priority 2001, dated 2012).

Tested on: Genes belonging to other category
Assay: DNA chip mRNA expression in yeast, genes belonging to other category (Table 9)
Format: cell-based, Saccharomyces cerevisiae S288C
In short: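 Cells were grown at 25° C. in YPD, treated at logarithmic phase for 2 h with a chemical at a concentration inhibiting growth but not causing death, and compared with untreated cultures. Labeled cDNA was hybridized to a DNA chip carrying all yeast genes, and the expression ratio was taken from scanner fluorescence.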

**Q.** With “manganese ethylenebis(dithiocarbamate) [(8)]” as the substance, how does the “The level of expressed mRNA in the presence of chemical substance/The level of expressed mRNA in the absence of chemical substance” value (yeast gene YAR010C) read?
**A.** The value was 1.3.

**Q.** And the “The level of expressed mRNA in the presence of chemical substance/The level of expressed mRNA in the absence of chemical substance” value (yeast gene YBL005W-A)?
**A.** Its value is 1.0.

**Q.** And the “The level of expressed mRNA in the presence of chemical substance/The level of expressed mRNA in the absence of chemical substance” value (yeast gene YBL041W)?
**A.** The value was 1.7.

**Q.** What about the “The level of expressed mRNA in the presence of chemical substance/The level of expressed mRNA in the absence of chemical substance” value (yeast gene YBL043W) of the same substance?
**A.** The value was 2.1.

**Q.** And the “The level of expressed mRNA in the presence of chemical substance/The level of expressed mRNA in the absence of chemical substance” value (yeast gene YBL078C)?
**A.** Its value is 1.6.

**Q.** What about the “The level of expressed mRNA in the presence of chemical substance/The level of expressed mRNA in the absence of chemical substance” value (yeast gene YBR214W) of the same substance?
**A.** Its value is 0.7.

**Q.** What about the “The level of expressed mRNA in the presence of chemical substance/The level of expressed mRNA in the absence of chemical substance” value (yeast gene YCL020W) of the same substance?
**A.** Its value is 1.7.

**Q.** And the “The level of expressed mRNA in the presence of chemical substance/The level of expressed mRNA in the absence of chemical substance” value (yeast gene YCL027W)?
**A.** Its value is 0.6.

**Q.** And the “The level of expressed mRNA in the presence of chemical substance/The level of expressed mRNA in the absence of chemical substance” value (yeast gene YCR004C)?
**A.** Its value is 1.2.

**Q.** And the “The level of expressed mRNA in the presence of chemical substance/The level of expressed mRNA in the absence of chemical substance” value (yeast gene YCR071C)?
**A.** The value was 0.9.

**Q.** What about the “The level of expressed mRNA in the presence of chemical substance/The level of expressed mRNA in the absence of chemical substance” value (yeast gene YCR088W) of the same substance?
**A.** The value was 0.5.

**Q.** What about the “The level of expressed mRNA in the presence of chemical substance/The level of expressed mRNA in the absence of chemical substance” value (yeast gene YDL008W) of the same substance?
**A.** Its value is 1.2.

**Q.** And the “The level of expressed mRNA in the presence of chemical substance/The level of expressed mRNA in the absence of chemical substance” value (yeast gene YDL238C)?
**A.** Its value is 5.8.

**Q.** And the “The level of expressed mRNA in the presence of chemical substance/The level of expressed mRNA in the absence of chemical substance” value (yeast gene YDR055W)?
**A.** Its value is 1.6.

**Q.** What about the “The level of expressed mRNA in the presence of chemical substance/The level of expressed mRNA in the absence of chemical substance” value (yeast gene YDR084C) of the same substance?
**A.** Its value is 0.7.

**Q.** What about the “The level of expressed mRNA in the presence of chemical substance/The level of expressed mRNA in the absence of chemical substance” value (yeast gene YDR085C) of the same substance?
**A.** The value was 2.0.

**Q.** And the “The level of expressed mRNA in the presence of chemical substance/The level of expressed mRNA in the absence of chemical substance” value (yeast gene YDR104C)?
**A.** Its value is 1.3.

**Q.** What about the “The level of expressed mRNA in the presence of chemical substance/The level of expressed mRNA in the absence of chemical substance” value (yeast gene YDR115W) of the same substance?
**A.** Its value is 1.3.

**Q.** And the “The level of expressed mRNA in the presence of chemical substance/The level of expressed mRNA in the absence of chemical substance” value (yeast gene YDR259C)?
**A.** The value was 1.4.

**Q.** And the “The level of expressed mRNA in the presence of chemical substance/The level of expressed mRNA in the absence of chemical substance” value (yeast gene YDR315C)?
**A.** The value was 1.4.

**Q.** And the “The level of expressed mRNA in the presence of chemical substance/The level of expressed mRNA in the absence of chemical substance” value (yeast gene YDR358W)?
**A.** Its value is 1.2.

**Q.** What about the “The level of expressed mRNA in the presence of chemical substance/The level of expressed mRNA in the absence of chemical substance” value (yeast gene YDR388W) of the same substance?
**A.** The value was 0.8.

**Q.** And the “The level of expressed mRNA in the presence of chemical substance/The level of expressed mRNA in the absence of chemical substance” value (yeast gene YDR432W)?
**A.** The value was 0.5.

**Q.** And the “The level of expressed mRNA in the presence of chemical substance/The level of expressed mRNA in the absence of chemical substance” value (yeast gene YDR481C)?
**A.** Its value is 1.0.

**Q.** What about the “The level of expressed mRNA in the presence of chemical substance/The level of expressed mRNA in the absence of chemical substance” value (yeast gene YDR510W) of the same substance?
**A.** The value was 1.5.

**Q.** What about the “The level of expressed mRNA in the presence of chemical substance/The level of expressed mRNA in the absence of chemical substance” value (yeast gene YEL042W) of the same substance?
**A.** Its value is 0.7.

**Q.** And the “The level of expressed mRNA in the presence of chemical substance/The level of expressed mRNA in the absence of chemical substance” value (yeast gene YEL066W)?
**A.** Its value is 1.4.

**Q.** And the “The level of expressed mRNA in the presence of chemical substance/The level of expressed mRNA in the absence of chemical substance” value (yeast gene YER039C)?
**A.** The value was 0.7.

**Q.** What about the “The level of expressed mRNA in the presence of chemical substance/The level of expressed mRNA in the absence of chemical substance” value (yeast gene YER107C) of the same substance?
**A.** Its value is 0.8.

**Q.** And the “The level of expressed mRNA in the presence of chemical substance/The level of expressed mRNA in the absence of chemical substance” value (yeast gene YER130C)?
**A.** Its value is 1.2.

**Q.** And the “The level of expressed mRNA in the presence of chemical substance/The level of expressed mRNA in the absence of chemical substance” value (yeast gene YFL022C)?
**A.** The value was 0.8.

**Q.** And the “The level of expressed mRNA in the presence of chemical substance/The level of expressed mRNA in the absence of chemical substance” value (yeast gene YFL028C)?
**A.** Its value is 1.5.

**Q.** What about the “The level of expressed mRNA in the presence of chemical substance/The level of expressed mRNA in the absence of chemical substance” value (yeast gene YFL043C) of the same substance?
**A.** Its value is 1.0.

**Q.** What about the “The level of expressed mRNA in the presence of chemical substance/The level of expressed mRNA in the absence of chemical substance” value (yeast gene YGL158W) of the same substance?
**A.** Its value is 1.3.

**Q.** And the “The level of expressed mRNA in the presence of chemical substance/The level of expressed mRNA in the absence of chemical substance” value (yeast gene YGL229C)?
**A.** The value was 0.7.

**Q.** And the “The level of expressed mRNA in the presence of chemical substance/The level of expressed mRNA in the absence of chemical substance” value (yeast gene YGR136W)?
**A.** The value was 1.3.

**Q.** And the “The level of expressed mRNA in the presence of chemical substance/The level of expressed mRNA in the absence of chemical substance” value (yeast gene YGR189C)?
**A.** The value was 1.0.

**Q.** What about the “The level of expressed mRNA in the presence of chemical substance/The level of expressed mRNA in the absence of chemical substance” value (yeast gene YGR213C) of the same substance?
**A.** Its value is 2.0.

**Q.** And the “The level of expressed mRNA in the presence of chemical substance/The level of expressed mRNA in the absence of chemical substance” value (yeast gene YGR257C)?
**A.** Its value is 1.0.

**Q.** What about the “The level of expressed mRNA in the presence of chemical substance/The level of expressed mRNA in the absence of chemical substance” value (yeast gene YHR004C) of the same substance?
**A.** The value was 0.9.

**Q.** And the “The level of expressed mRNA in the presence of chemical substance/The level of expressed mRNA in the absence of chemical substance” value (yeast gene YHR071W)?
**A.** Its value is 1.7.

**Q.** What about the “The level of expressed mRNA in the presence of chemical substance/The level of expressed mRNA in the absence of chemical substance” value (yeast gene YHR139C) of the same substance?
**A.** Its value is 1.3.

**Q.** What about the “The level of expressed mRNA in the presence of chemical substance/The level of expressed mRNA in the absence of chemical substance” value (yeast gene YHR142W) of the same substance?
**A.** The value was 1.3.

**Q.** And the “The level of expressed mRNA in the presence of chemical substance/The level of expressed mRNA in the absence of chemical substance” value (yeast gene YIL123W)?
**A.** The value was 0.6.

**Q.** And the “The level of expressed mRNA in the presence of chemical substance/The level of expressed mRNA in the absence of chemical substance” value (yeast gene YIL140W)?
**A.** Its value is 0.7.

**Q.** And the “The level of expressed mRNA in the presence of chemical substance/The level of expressed mRNA in the absence of chemical substance” value (yeast gene YJL073W)?
**A.** The value was 1.0.

**Q.** And the “The level of expressed mRNA in the presence of chemical substance/The level of expressed mRNA in the absence of chemical substance” value (yeast gene YJL089W)?
**A.** Its value is 1.1.

**Q.** And the “The level of expressed mRNA in the presence of chemical substance/The level of expressed mRNA in the absence of chemical substance” value (yeast gene YJL116C)?
**A.** The value was 1.8.

**Q.** And the “The level of expressed mRNA in the presence of chemical substance/The level of expressed mRNA in the absence of chemical substance” value (yeast gene YJR004C)?
**A.** Its value is 0.4.

**Q.** What about the “The level of expressed mRNA in the presence of chemical substance/The level of expressed mRNA in the absence of chemical substance” value (yeast gene YJR086W) of the same substance?
**A.** The value was 1.1.
